Data taken from patent US9012403B2, “Peptides as active agents to stabilize biological barriers” (XiberScience GmbH, priority 2010, dated 2015).
Marks after values point to notes of the source that are not given here.

Legend:
Assay type in all cases: cell-based
[1] = test system: Phosphorylated Myosin Light Chain (MLC) and actin stress fibers; experiment: MLC phosphorylation and actin stress fiber formation in HpMec cells (microscopy score)
Experimental: (§1) To measure MLC phosphorylation and actin stress fiber formation, the following cell lines were used: Caco-2, ECV304 and HpMec. All cells were grown at standard conditions (37° C., 5% CO2 and 95% rH). Culture Medium used: for Caco-2: DMEM+1 mM sodium pyruvate+20% FCS+1% Penicillin Streptomycin; for ECV 304: RPMI 1640+10% FCS+1% Penicillin Streptomycin; and for HpMec: IMDM+25 mM Hepes+10% Human Serum+1% Penicillin Streptomycin+1% L-Glutamine+ECGS/Heparin 2 ml. 4 h before the experiment, cells were starved by serum withdrawal. To induce GEF-activity, cells were stimulated with thrombin, LPS or PMA for the indicated time in presence or absence of 50 μg/ml XIB1-a or XIB1-b. After stimulation, cells were fixed using 4% PFA. Phospho MLC was detected by using the “rabbit anti phosphor-myosin light chain antibody” from Chemicon in a concentration of 3 μl/ml in PBS (Gibco) supplemented with 0.1% Triton X-100. As detection antibody, the Alexa 448 tagged “anti Rabbit IgG Antibody” from Invitrogen was used in a concentration of 0.5 μl/ml in PBS (Gibco) supplemented with 0.1% Triton X-100. Aktin was detected using TRITC-labeled Phalloidin in a concentration of 0.5 μl/ml in PBS (Gibco) supplemented with 0.1% Triton. Stained cells were analyzed by using a Zeiss Laser Scan microscope. Evaluation of the cyto-skeletal activation was performed by 2 independent observers that were blinded to the conditions. Evaluation criteria were set as follows:
(§2) Actin: parallel actin bundles absent=0; distinct bundle formation=1; prominent parallel bundles=2; Phospho-MLC: present at cell poles=0; slight co-localization with actin bundles=1; prominent co-localization with actin bundles=2

GTP-bound RhoA [2] = experiment: GTP-associated active RhoA in Caco-2 membrane fraction (western blot)
Experimental: (§3) To measure the GTP-associated active RhoA, the following cell lines were used: Caco-2, ECV304 and HpMec. All cells were grown at standard conditions (37° C., 5% CO2 and 95% rH). 4 h before the experiment, cells were starved by serum withdrawal. To induce GEF-activity, cells were stimulated with thrombin, LPS or PMA for the indicated time in presence or absence of 50 μg/ml XIB1-a or XIB1-b. After stimulation, membrane fractions were prepared by using the commercial available “Compartemental Protein Extraction Kit” from Biochain Institutes. Membrane fractions were prepared according to the manufacturer instructions. The membrane fraction was separated on 15% polyacrylamide gel according to standard procedures of gel electrophoresis. The gels were afterwards blotted on a nitrocellulose membrane according to standard procedures of western blotting. GTP-bound RhoA was detected using RhoA-GTP monoclonal antibody from NewEast Inc. in a dilution of 1:5000. Protein bands were analyzed with the Dolphin-1D Gel analysis system (Wealtec).

[3] = test system: Phosphorylated Myosin Light Chain (MLC) and actin stress fibers; experiment: MLC phosphorylation and actin stress fiber formation in Caco-2 cells (microscopy score)
Experimental: as §1, §2

GEF [4] = experiment: GEF-activity in membrane fractions of ECV304 cells (RhoGEF Exchange Assay)
Experimental: (§4) To measure the GEF-inhibitory effect, the following cell lines were used: Caco-2 (epithelial cells from adeno-carcinoma), ECV304 (epithelial cells from bladder carcinoma) and HpMec (endothelial cells, immortalized pulmonary micro-vascular cells). All cells were grown at standard conditions (37° C., 5% CO2 and 95% relative humidity (rH)). Culture Medium used for Caco-2: DMEM+1 mM sodium pyruvate+20% FCS+1% Penicillin Streptomycin; for ECV 304: RPMI 1640+10% FCS+1% Penicillin Streptomycin; and for HpMec: IMDM+25 mM Hepes+10% Human Serum+1% Penicillin Streptomycin+1% L-Glutamine+ECGS/Heparin 2 ml. 4 h before the experiment, cells were starved by serum withdrawal. To induce GEF-activity, cells were stimulated with thrombin, lipopolysaccharide (LPS) or PMA for the indicated time in presence or absence of 50 μg/ml XIB1-a or XIB1-b. After stimulation, membrane fractions were prepared by using the commercial available “Compartemental Protein Extraction Kit” from Biochain institutes. Membrane fractions were prepared according to the manufacturer instructions. GEF-activity in membrane lysates was determined by using “RhoGEF Exchange Assay Biochem Kit” from Cytoskeleton Inc. according to manufacturer instructions. GEF-activity was measured as fluorescence at using the Fluoroskan Ascent FL 2.6 from Thermo Electron Corporation. The excitation Filter wavelength was set at 355 nm and the emission filter wavelength at 460 nm.

GEF [5] = experiment: GEF-activity in membrane fractions of Caco-2 cells (RhoGEF Exchange Assay)
Experimental: as §4

GTP-bound RhoA [6] = experiment: GTP-associated active RhoA in HpMec membrane fraction (western blot); settings: HpMec
Experimental: as §3

[7] = Thrombin 1 U/ml, 1 min, with or without peptide 50 μg/ml
[8] = Thrombin 1 U/ml, 5 min, with or without peptide 50 μg/ml
[9] = no stimulus, 1 min, peptide 50 μg/ml
[10] = no stimulus, 5 min, peptide 50 μg/ml
[11] = CaCo-2, PMA 1 μg/ml, 1 min, with or without peptide 50 μg/ml
[12] = CaCo-2, PMA 1 μg/ml, 5 min, with or without peptide 50 μg/ml
[13] = CaCo-2, no stimulus, 1 min, peptide 50 μg/ml
[14] = CaCo-2, no stimulus, 5 min, peptide 50 μg/ml
[15] = ECV 304, LPS 100 μg/ml, 1 min, with or without peptide 50 μg/ml
[16] = ECV 304, LPS 100 μg/ml, 5 min, with or without peptide 50 μg/ml
[17] = ECV 304, Thrombin 1 U/ml, 1 min, with or without peptide 50 μg/ml
[18] = ECV 304, Thrombin 1 U/ml, 5 min, with or without peptide 50 μg/ml
[19] = ECV 304, no stimulus, 1 min, peptide 50 μg/ml
[20] = ECV 304, no stimulus, 5 min, peptide 50 μg/ml

Sequence | MLC phosphorylation and actin stress fiber formation, evaluation score (Mean) [1, 7] | MLC phosphorylation and actin stress fiber formation, evaluation score (Mean) [1, 8] | MLC phosphorylation and actin stress fiber formation, evaluation score (Mean) [1, 9] | MLC phosphorylation and actin stress fiber formation, evaluation score (Mean) [1, 10] | GTP-bound RhoA, relative values compared to unstimulated control (Mean) (GTP-bound RhoA [2]; [11]) | GTP-bound RhoA, relative values compared to unstimulated control (Mean) (GTP-bound RhoA [2]; [12]) | GTP-bound RhoA, relative values compared to unstimulated control (Mean) (GTP-bound RhoA [2]; [13]) | GTP-bound RhoA, relative values compared to unstimulated control (Mean) (GTP-bound RhoA [2]; [14]) | MLC phosphorylation and actin stress fiber formation, evaluation score (Mean) [3, 11] | MLC phosphorylation and actin stress fiber formation, evaluation score (Mean) [3, 12] | MLC phosphorylation and actin stress fiber formation, evaluation score (Mean) [3, 13] | MLC phosphorylation and actin stress fiber formation, evaluation score (Mean) [3, 14] | GEF-activity, relative values compared to unstimulated control (Mean) (GEF [4]; [15]) | GEF-activity, relative values compared to unstimulated control (Mean) (GEF [4]; [16]) | GEF-activity, relative values compared to unstimulated control (Mean) (GEF [4]; [17]) | GEF-activity, relative values compared to unstimulated control (Mean) (GEF [4]; [18]) | GEF-activity, relative values compared to unstimulated control (Mean) (GEF [4]; [19]) | GEF-activity, relative values compared to unstimulated control (Mean) (GEF [4]; [20]) | GEF-activity, relative values compared to unstimulated control (Mean) (GEF [5]; [11]) | GEF-activity, relative values compared to unstimulated control (Mean) (GEF [5]; [12]) | other results
GRRPGGASGG (/note=“Description of artificial sequence cingulin-derived peptide XIB1-a”) | 1* | 0.3* | 0 | 0 | 1.4* | 1.3* | 1 | 1 | 1* | 2* | 0 | 0 | 1.7* | 1.3* | 2.5* | 1.5* | 1 | 1 | 1.4* | 1.5 | GEF-activity, relative values compared to unstimulated control (Mean) (GEF [5]; [13]): 1; GEF-activity, relative values compared to unstimulated control (Mean) (GEF [5]; [14]): 1; GTP-bound RhoA, relative values compared to unstimulated control (Mean) (GTP-bound RhoA [6]; [7]): 2.1*; GTP-bound RhoA, relative values compared to unstimulated control (Mean) (GTP-bound RhoA [6]; [8]): 1.3*; GTP-bound RhoA, relative values compared to unstimulated control (Mean) (GTP-bound RhoA [6]; [9]): 1; GTP-bound RhoA, relative values compared to unstimulated control (Mean) (GTP-bound RhoA [6]; [10]): 1
GRRPLGGISGG (/note=“Description of artificial sequence cingulin-derived peptide XIB1-b”) | 1* | 0.3* | 0 | 0 | 1.4* | 1.3* | 1 | 1 | 1* | 2* | 0 | 0 | 1.7* | 1.3* | 2.5* | 1.5* | 1 | 1 | 1.4* | 1.5 | GEF-activity, relative values compared to unstimulated control (Mean) (GEF [5]; [13]): 1; GEF-activity, relative values compared to unstimulated control (Mean) (GEF [5]; [14]): 1; GTP-bound RhoA, relative values compared to unstimulated control (Mean) (GTP-bound RhoA [6]; [7]): 2.1*; GTP-bound RhoA, relative values compared to unstimulated control (Mean) (GTP-bound RhoA [6]; [8]): 1.3*; GTP-bound RhoA, relative values compared to unstimulated control (Mean) (GTP-bound RhoA [6]; [9]): 1; GTP-bound RhoA, relative values compared to unstimulated control (Mean) (GTP-bound RhoA [6]; [10]): 1
